Assay results: publication PMC7311461, “Cyclophilin D binds to the acidic C-terminus region of α-Synuclein and affects its aggregation characteristics” (Scientific Reports, 2020)
Entries after “also recorded” stand apart in the source; their conditions may differ. Values belong to the molecule of their own block, whether it stands above or below them.

Key:
[1] = system: αSyn; settings: cited from earlier work
From the text: (§1) Proteins currently known to dissociate amyloid fibrils do so in either an ATP-dependent or –independent manner. Examples of the former include Hsp70, whereas the latter mode can be found in Cyclophilin 40 (Cyp40)[14],[15]. […] The effects of Cyp40 on the tau and αSyn fibrils were attributed to its peptidyl-prolyl isomerase activity. […] An emerging picture is that agents that prevent aggregation can also dissemble amyloid fibrils. […] Human Cyp40 is a multidomain protein consisting of the catalytic isomerase domain followed by four tetratricopeptide repeats. Through mutagenesis, the isomerase domain was identified as being responsible for this disaggregating activity[15] as is also shown here for CypD. CypD also interacts directly with the Alz ...

[2] = system: αSyn; settings: cited from earlier work; remark: listed apart in the source
From the text: While the aggregation processes are well studied the same is not true for disaggregation. […] EGCG binding to the C-terminus stabilises the αSyn monomeric state and shifts the monomer-fibril equilibrium towards the less aggregated forms. […] Human Cyp40 is a multidomain protein consisting of the catalytic isomerase domain followed by four tetratricopeptide repeats. Through mutagenesis, the isomerase domain was identified as being responsible for this disaggregating activity[15] as is also shown here for CypD. CypD also interacts directly with the Alz ...

[3] = system: amyloid-β (Aβ); settings: cited from earlier work
From the text: as §1

[4] = system: tau; settings: cited from earlier work
From the text: Proteins currently known to dissociate amyloid fibrils do so in either an ATP-dependent or –independent manner. Examples of the former include Hsp70, whereas the latter mode can be found in Cyclophilin 40 (Cyp40)[14],[15]. […] The effects of Cyp40 on the tau and αSyn fibrils were attributed to its peptidyl-prolyl isomerase activity.

[5] = target: T1, CypD (Homo sapiens, UniProt P30405); test: Isothermal titration calorimetry, binding to CypD wild-type; settings: 10°C, 20 mM phosphate, 20 mM NaCl, pH 6.5
T1 construct: His tag (TEV-cleavable, pETM11 vector) (cleaved yes); made in house; host or cells: E. coli BL21 (DE3)
Description: All ITC experiments were carried out at 10°C on an ITC200 Microcalorimeter (GE Healthcare). The buffer used was 20 mM phosphate, 20 mM NaCl at pH 6.5. Each experiment consisted of an initial injection of 0.5 µL, followed by fifteen 2.39 µL injections before a final injection of 1.89 µL. Control experiments were performed whereby each compound was titrated into buffer and buffer titrated into CypD. In both cases no heat exchange was detected, confirming that there was appropriate match of buffer conditions with no indication of dilution effects. The titration experiments were performed in duplicates, with 50-100 µM CypD in the cell and 500-2000 µM peptides in the syringe. For some of the titrations, data from two runs were concatenated to achieve a saturating isotherm. All data was analysed using the Origin®7 (OriginLab, Northampton, MA) software programme.

[6] = target: T1, CypD; test: 1H-15N HSQC NMR of 15N-CypD, binding site identification; settings: 15N-CypD HSQC, 20-fold excess peptide; 20 mM phosphate, 20 mM NaCl, pH 6.5
Description: NMR spectra were acquired on Bruker Avance III 800 MHz spectrometer equipped with [^1H, ^15N, ^13C]-cryoprobes. […] The same buffer was used for obtaining the ^1H-^15N spectra of ^15N-labelled αSyn at 298 K. Experiments using ^15N-labelled αSyn fibrils were performed at 288 K. ^2H/^15N-labelled CypD was used to make the complex with intact αSyn in order to achieve the optimal conditions to observe shift perturbations, taking into account the size of the complex (~32kD). Backbone ^1H and ^15N resonances of CypD and αSyn were assigned using standard triple resonance to those assigned by ^13C, ^15N, ^1H-triple resonance HNCA, HN(CO)CA, HNCO, HN(CA)CO, CBCA(CO)NH, and CBCANH experiments.
In the analyses of the chemical shift perturbation, the chemical-shift difference was expressed as: Δδ = {(ΔH)^2 + (0.15ΔN)^2}^1/2. Values of Δδ greater than 0.07 were considered significant.

[7] = target: T1, CypD; test: Isomerisation substrate test by NMR; format: biochemical
Description: (§2) NMR spectra were acquired on Bruker Avance III 800 MHz spectrometer equipped with [^1H, ^15N, ^13C]-cryoprobes. 1D and 2D spectra of αSyn peptide were performed using 1 mM peptide dissolved in 20 mM phosphate, 20 mM NaCl pH 6.5 at 298 K or 283 K. Resonance assignments of the proton spectra of αSyn peptide were obtained using ^1H-^1H 2D TOCSY (mixing time 60 ms) and NOESY spectra (mixing time 350 ms). […] The same buffer was used for obtaining the ^1H-^15N spectra of ^15N-labelled αSyn at 298 K. Experiments using ^15N-labelled αSyn fibrils were performed at 288 K. ^2H/^15N-labelled CypD was used to make the complex with intact αSyn in order to achieve the optimal conditions to observe shift perturbations, taking into account the size of the complex (~32kD). Backbone ^1H and ^15N resonances of CypD and αSyn were assigned using standard triple resonance to those assigned by ^13C, ^15N, ^1H-triple resonance HNCA, HN(CO)CA, HNCO, HN(CA)CO, CBCA(CO)NH, and CBCANH experiments.

[8] = system: human insulin and human lysozyme; settings: cited from earlier work
From the text: An emerging picture is that agents that prevent aggregation can also dissemble amyloid fibrils.

[9] = system: αSynC peptide (cis-trans isomerisation by CypD); test: NMR detection of αSynC cis-trans isomerisation (1D line-broadening, 2D NOESY exchange cross-peaks); format: biochemical; settings: αSynC 1 mM, CypD 50uM, CsA 100uM, 283 K
Description: as §2

[10] = system: αSyn effects on mitochondria / MPTP; settings: cited from earlier work
From the text: Cyclophilin D (CypD) is a mitochondrial peptidyl-prolyl isomerase that has been implicated to be involved in the mechanisms of many diseases, although it is best known as a regulator for the opening of the mitochondria permeability transition pore (MPTP). […] Co-immunoprecipitation experiments ...

T1 sequence (P30405 43-207): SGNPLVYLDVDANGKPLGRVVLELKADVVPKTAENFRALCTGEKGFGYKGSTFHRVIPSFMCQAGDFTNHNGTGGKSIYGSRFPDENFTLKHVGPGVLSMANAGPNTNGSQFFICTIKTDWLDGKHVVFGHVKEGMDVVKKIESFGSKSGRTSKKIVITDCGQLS

Molecule: epigallocatechin-3-gallate [EGCG]
dissociation of αSyn aggregates [1]: dissociates αSyn aggregates
binding to C-terminus of monomeric αSyn [2]: binds to the C-terminus of monomeric αSyn

Molecule: FKBP12: peptidyl-prolyl isomerase immunophilin protein belonging to the FKBP family, cytoplasmic
αSyn aggregation [1]: promoted αSyn aggregation
binding to αSyn [2]: shown to bind αSyn

Molecule: Cyp40: cytosolic peptidyl prolyl isomerase, co-chaperone to Hsp90
dissociation of fibrils ([3]; Aβ fibrils): not amyloid-β (Aβ) fibrils
dissociation of fibrils ([1]; αSyn fibrils): dissociate tau, and αSyn
dissociation of fibrils [4]: dissociate tau

Molecule: C=CC[C@@H]1/C=C(\C)C[C@H](C)C[C@H](OC)[C@H]2O[C@@](O)(C(=O)C(=O)N3CCCC[C@H]3C(=O)O[C@H](/C(C)=C/[C@@H]3CC[C@@H](O)[C@H](OC)C3)[C@H](C)[C@@H](O)CC1=O)[C@H](C)C[C@@H]2OC [FK506]
αSyn aggregation (FKBP inhibitor) [1]: prevent αSyn aggregation

interaction with CypD / isomerisation substrate [7]: not an isomerisation substrate of CypD
Molecule: GVATVAEKTKEQVTN [αSynM, synthetic peptide 51–65 of αSyn, >98% pure]
binding to CypD (ITC, in words) [5]: too weak to yield a reliable binding isotherm; also recorded: binds much more weakly
binding to CypD by NMR (in words) [6]: only slightly shifted from the positions in the free protein with minimal broadening observed for selected peaks; also recorded: very weak binding

Molecule: CC12CC3CC(C)(C1)CC(N)(C3)C2 [memantine]
Aβ aggregation and preformed Aβ fibrils [3]: inhibits Αβ aggregation; also recorded: disassembles preformed Aβ fibrils

Molecule: Cyclophilin A: Cyclophilin A
binding to αSyn [2]: bind to αSyn, also at the C-terminus as well as to the preNAC sequence

Molecule: CC(CN1c2ccccc2Sc2ccccc21)N(C)C (centres unmarked) [promethazine]
aggregation of human insulin and human lysozyme [8]: prevents the aggregation of human insulin and human lysozyme; also recorded: depolymerises preformed fibrils

Molecule: cyclosporine A [CsA]
effect of CsA on exchange cross-peaks (CypD isomerase activity) [9]: exchange crosspeaks disappear
effect of CsA on exchange cross-peaks (CypD isomerase activity) ([9]; listed as Cyclosporine A): disappearance of the exchange cross-peaks
rescue of αSyn effects on mitochondria [10]: can be rescued
